Test results published in PubChem BioAssay (NCI).
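Cells were grown in 96-well plates and exposed to each compound for 48 hours at five concentrations; endpoints were interpolated linearly between bracketing concentrations, or set to the highest concentration if not reached. Here, GI50 denotes the concentration required for 50% inhibition of growth. TGI denotes the concentration required for complete inhibition of growth.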

Legend:
Assay in all cases: NCI anticancer screen, dose series, 48 h
[1] = tested on: OVCAR-4 ovarian
[2] = tested on: SK-MEL-5 melanoma
[3] = tested on: U251 CNS
[4] = tested on: CAKI-1 renal
[5] = tested on: KM12 colon
[6] = tested on: EKVX NSCLC
[7] = tested on: SW-620 colon
[8] = tested on: LOX IMVI melanoma
[9] = tested on: COLO 205 colon
[10] = tested on: DU-145 prostate

| SMILES | TGI [1] [µM] | TGI [2] [µM] | TGI [3] [µM] | TGI [4] [µM] | TGI [5] [µM] | TGI [6] [µM] | TGI [7] [µM] | TGI [8] [µM] | TGI [9] [µM] | GI50 [1] [nM] | GI50 [10] [nM] | TGI [10] [µM] | GI50 [2] [nM] | GI50 [3] [µM] | GI50 [9] [µM] | GI50 [5] [µM] | GI50 [6] [nM] | GI50 [7] [nM] | GI50 [8] [nM] | GI50 [4] [nM] |
| --- | --- | --- | --- | --- | --- | --- | --- | --- | --- | --- | --- | --- | --- | --- | --- | --- | --- | --- | --- | --- |
| c1cncc(C2c3[nH]c4ccccc4c3CCN2CCN2CCCCC2)c1 (centres undefined) | > 100 | > 100 | > 100 | > 100 | > 100 | > 100 | > 100 | > 100 |  |  |  |  |  |  |  |  |  |  |  |  |
| c1cc2c(cnc3cscc32)s1 | > 100 | > 100 | > 100 | > 100 | > 100 |  | > 100 | > 100 |  |  |  |  |  |  |  |  |  |  |  |  |
| Cn1c(=O)c2c(nc3n2CCC(=O)N3)n(C)c1=O | > 100 | > 100 | > 100 | > 100 | > 100 | > 100 | > 100 | > 100 | > 100 |  |  |  |  |  |  |  |  |  |  |  |
| COC(=O)C12C3C4C1C1C2C3C41I (centres undefined) | > 100 | > 100 | > 100 | > 100 |  | > 100 | > 100 |  | > 100 |  |  |  |  |  |  |  |  |  |  |  |
| Cc1c(C(=O)CC(=O)C(=O)NC2C3CC4CC(C3)CC2C4)[n+](=O)c2ccccc2n1[O-] (centres undefined) | > 100 | > 100 | > 100 | > 100 | > 100 | > 100 | > 100 | > 100 | > 100 |  |  |  |  |  |  |  |  |  |  |  |
| CC(=O)O/C(C)=C\C(=O)O/N=C(\N)c1ccc(C)cc1 | 64.5 | 58.5 | 40.5 | > 100 | > 100 | > 100 | > 100 | > 100 | > 100 |  |  |  |  |  |  |  |  |  |  |  |
| C=C1C(O)C2C(=C(CC(C)C)C13CC3)C(=O)C(C)(C)C2OC (centres undefined) | > 100 | > 100 | > 100 |  | > 100 | > 100 | > 100 | > 100 | > 100 | > 100000 | > 100000 | > 100 | > 100000 | > 100 | > 100 | > 100 | > 100000 | > 100000 | > 100000 |  |
| CCOC(=O)/C=C(/CN1C(=O)c2ccccc2C1=O)c1ccccc1 | > 100 | > 100 | > 100 | > 100 | > 100 | > 100 | > 100 | > 100 | > 100 |  |  |  |  |  |  |  |  |  |  |  |
| CN(C)CCNC(=O)c1cc([N+](=O)[O-])cc2ccc(-c3ccccc3)nc12 | 13 | 11.8 | 32 | > 40.4 | 49.6 | > 71.4 | > 38.7 | 30.5 | 21.6 |  |  |  |  |  |  |  |  |  |  |  |
| COc1cccc2c(=O)c3c(sc12)c(NCCCN)nc1ccccc13 | 3.64 | 3.07 |  | 2.82 | 3.21 | 2.81 | 2.81 | 2.68 |  | 1730 | 1480 | 2.82 | 1690 |  |  | 1.62 | 1430 | 1300 | 1300 | 1480 |
| OC1CCC(C2C3CCCCC3C3CCCCC3C2C2CCC(O)CC2)CC1 (centres undefined) | 16 | 23.5 | 14 | 13 | 15.5 | > 100 | 19.6 |  |  |  |  | > 100 |  |  |  |  |  |  |  |  |
| CCCCCCCCCCCCC(SCCNC(=O)CCNC(=O)C(O)C(C)(C)COP(=O)(O)OP(=O)(O)OCC1OC(n2cnc3c(N)ncnc32)C(O)C1OP(=O)(O)O)C(=O)NCC(N)=O (centres undefined) | > 100 | > 100 | > 100 |  | > 100 | > 100 | > 100 | > 100 | > 100 |  |  |  |  |  |  |  |  |  |  |  |
| C=CCN(N=O)C(=O)N(CCC)CCCC(NC(C)=O)C(=O)NCc1ccccc1 (centres undefined) | > 100 | > 100 | > 100 | > 100 | > 100 | > 100 | > 100 | > 100 | > 100 |  |  |  |  |  |  |  |  |  |  |  |
| CN(C)CCNc1cccc2sc3ccc(O)cc3c(=O)c12 | 12.3 | 3.25 |  | 13.3 | 14.3 |  | 3.44 |  | 15.3 | 2750 | 1120 | 11.2 | 1690 |  | 3.92 | 3.22 |  | 1160 |  | 2220 |
| CCOC(=O)c1c2ccc(/C=C/C(=O)OC)ccc-2c(C(=O)OCC)c1N | > 100 | > 100 |  | > 100 | > 100 | > 100 | > 100 | > 100 | > 100 |  |  |  |  |  |  |  |  |  |  |  |
| O=C1c2cccc3cc([N+](=O)[O-])cc(c23)C(=O)N1CCCN1CCN(CCCN2C(=O)c3cccc4cc([N+](=O)[O-])cc(c34)C2=O)CC1 | 5.96 | 2.37 | 19.3 |  |  | > 100 | > 100 |  | 2.67 |  |  |  |  |  |  |  |  |  |  |  |
| O=c1oc2c3ccc4ccccc4c3n(Cc3nc4ccccc4[nH]3)c2c2ccccc12 | > 100 |  | > 100 | > 100 | > 100 | > 31.6 | > 100 | > 100 | > 100 |  |  |  |  |  |  |  |  |  |  |  |
| COc1ccc2c(C3(O)CCNCC3)c[nH]c2c1 | > 100 | > 100 | > 100 | > 100 | > 100 | > 100 | > 100 | > 100 | > 100 |  |  |  |  |  |  |  |  |  |  |  |
| CC1(C)OC2C(=O)OC(COCc3ccccc3)C2O1 (centres undefined) | > 100 | > 100 | > 100 | > 100 | > 100 | > 100 | > 100 | > 100 | > 100 |  |  |  |  |  |  |  |  |  |  |  |
| CCOC(OC1=C(C#N)CCC1)C(CC)[Se]c1ccccc1 (centres undefined) | 33.1 | 31.6 | 23.9 | > 100 | > 100 | 89 |  | 17.7 | 53.9 |  |  |  |  |  |  |  |  |  |  |  |
| c1ccc(COc2ccc3[nH]c4c(ncc5[nH]c6ccccc6c54)c3c2)cc1 |  | 30 | 24.4 | 47.5 | 29.5 | 32.4 | 32.3 | 32.9 | 47.1 |  |  |  |  |  |  |  |  |  |  |  |
| NC(=O)c1ccccc1NC(=O)C(=O)C(c1cnc2ccc([N+](=O)[O-])cc2n1)[N+](=O)[O-] (centres undefined) | > 100 | > 100 | > 100 | > 100 | > 100 | > 100 | > 100 | > 100 |  |  |  |  |  |  |  |  |  |  |  |  |
